Assay results taken from US6565890B2, “Antiviral drugs containing heteropolyanions” (priority 2001, dated 2003).

Columns and labels:
Assay type in all cases: cell-based
MT-4 and Hela CD4 cells = assay: Cytotoxicity in the anti-HIV test, MTT colorimetric method; conditions: MT-4 cells or Hela CD4 cells; in words
Description: The tissue culture cells were MT-4 and Hela CD4. The HIV was prepared from the supernatant solutions of the culture fluids of HIV-producing MT-4 and HIV cells, or Hela CD4 and HIV cells. The media were 10% fetal calf serum, and for culturing, 0.2 ml of MT-4 cells or Hela CD4 cells and 0.2 ml of HIV cells were placed in each well of a 24-well culture tray. After virus adsorption (the virus infectivity titer was 100-CCID50 per about 10^5 cells), each drug such as PM-1001 diluted in a medium was added, to make a total amount of 1.0 ml, and the mixture was cultured at 37° C. for 4 to 6 days. As controls, cells not infected with HIV and cells untreated with any drug such as PM-1001 were used. […] In the MTT colorimetry, the absorbance is measured by means of a colorimeter using a wavelength of 540 nm, to obtain the vital cell number proportional to the absorbance. If all the cells are dead due to virus infection, the absorbance becomes almost zero.
(§1) With the concentration of each drug such as PM-1001 as a parameter, the cell growth rate was examined. […] That is, the drug concentration capable of improving the absorbance of […] up to 50% (to prevent cytocidal cell degeneration) is obtained and expressed in micromoles (μM). […] ND stands for “not determined”.

[1] = system: HIV (human immunodeficiency virus); assay: Inhibition of HIV cytopathic effect, MTT colorimetric method; conditions: HIV produced with either MT-4 cells or Hela CD4 cells; in words, figures only in FIG. 2
Description: The antiviral effect against HIV (human immunodeficiency virus) and cytotoxicity of the PM-1001 and PM-1002 of this invention synthesized as described above were examined in comparison with those of K6[C0W12O40]. (called PM-1003), i.e., a heteropolyoxotungstate salt having perfect Keggin structure and conventional dextran sulfate (DS5000) and azidothymidine (AZT) respectively utilized because of their excellent anti-HIV effect. The inhibition of cell growth of HIV was measured according to the MTT colorimetric method.
The tissue culture cells were MT-4 and Hela CD4. The HIV was prepared from the supernatant solutions of the culture fluids of HIV-producing MT-4 and HIV cells, or Hela CD4 and HIV cells. […] In the MTT colorimetry, the absorbance is measured by means of a colorimeter using a wavelength of 540 nm, to obtain the vital cell number proportional to the absorbance. If all the cells are dead due to virus infection, the absorbance becomes almost zero.
as §1

[2] = system: DFV, FluV-A, RSV, PfluV, CDV, HIV; assay: Spectrum of antiviral activity (FIG. 3), MTT colorimetric method; conditions: all viruses of FIG. 3; in words
in vitro = conditions: for respective culture cells; read-out: toxicity CC50

Compound	adverse effects (cytotoxicity) (MT-4 and Hela CD4 cells)	potent efficacy against HIV [1]	antiviral effects (FIG. 3, EC50 comparison) [2]	CC50 (in vitro)
K6H4[(SbW9O33)2V3O3].29.5H2O [PM-1001]	low adverse effects	very high potent efficacies	remarkably excellent antiviral effects	–
K6H6[(SbW9O33)2V3O3].29.5H2O [PM-1002]	low adverse effects	very high potent efficacies	remarkably excellent antiviral effects	–
NC(=O)c1ncn([C@@H]2O[C@H](CO)[C@@H](O)[C@H]2O)n1 [ribavirin]	–	–	–	> 100 µM
